Measured values published in patent US8507469B2, “Azetidin compounds suitable for treating disorders that respond to modulation of the serotonin 5-HT6 receptor” (Abbott GmbH & Co. KG, priority 2007, dated 2013).
Where a name gives a salt, the structure may show the parent alone.

Legend:
[1] = target: histamine H1 receptor (Homo sapiens, UniProt P35367); assay: H1 receptor binding assay (displacement of [3H]-pyrilamine); conditions: CHO-K1 membranes, 1 nM [3H]-pyrilamine
Procedure: (§1) Cells from stable clonal cell lines expressing the corresponding receptor (5-HT6, 1-adrenergic, dopamine D2 or histamine H1 receptors) were washed with PBS (w/o Ca^++, Mg^++) and harvested in PBS with 0.02% EDTA. The cells were collected by centrifugation at 500 g for 10 min. at 4° C., washed with PBS and centrifuged (500 g, 10 min. 4° C.). The pellets were stored at −80° C. until use. For membrane preparation, the thawed cell pellet was resuspended in ice-cold sucrose buffer (0.25 M sucrose, 10 mM Hepes (pH 7.4), 1 mM Phenylmethylsulfonyl fluoride (PMSF) in DMSO, […] Pepstatin-A, 3 mM EDTA, 0.025% Bacitracin) and homogenized with a Branson Sonifier W-250 (Settings: Timer 4; Output Control 3; Duty Cycle constant; 2 to 3 cycles). Cell disruption was checked with the aid of a microscope. Remaining unbroken cells were pelleted at 1.000 g for 10 min. at 4° C. The sucrose buffer supernatant was then centrifuged at 60.000 g for 1 h at 4° C. (Beckman Ultrazentrifuge XL 80). The pellet was resuspended in 30 ml ice-cold Tris buffer (20 mM TRIS (pH 7.4), […] Pepstatin A, 0.1 mM PMSF, 3 mM EDTA) by pipetting through a 10 ml serological pipet and centrifuged for 1 h at 4° C. at 60.000 g. A final resuspension was performed in a small volume of ice-cold Tris buffer (see above) by pressing through a serological pipet followed by ultrasonic treatment with a Branson Sonifier W-250 (Settings: Timer 1; Output Control 3; Duty Cycle constant; 1 cycle). Protein concentration was determined (BCA-Kit; Pierce) and aliquots stored at −80° C. or in liquid nitrogen for long-term storage.
(§2) All receptor binding experiments were carried out in the corresponding assay buffer in a total volume of 200 μl in the presence of various concentrations of test compound (10^−5 M to 10^−9 M, tenfold serial dilution, duplicate determinations). The assays were terminated by filtration on polyethylenimine (PEI 0.1% or 0.3%) presoaked Packard Unifilter Plates (GF/C or GF/B) with a Tomtec MachIII U 96well-plate harvester. After the plates had been dried for 2 h at 55° C. in a drying chamber scintillation cocktail (BetaPlate Scint; PerkinElmer) was added. Radioactivity was measured in a Microbeta Trilux two hours after the addition of the scintillation mixture. Data derived from liquid scintillation counting were analysed by iterative non-linear regression analysis with the use of the Statistical Analysis System (SAS): a program similar to “LIGAND” as described by Munson and Rodbard (Analytical Biochemistry 107, 220-239 (1980).
CHO-K1 cells stably expressing the histamine H1 receptor (Euroscreen-ES-390-C, NCBI Reference Sequence NM_000861) were cultured in RPMI1640 medium supplemented with 25 mM HEPES, 10% fetal calf serum and 1-2 mM glutamine. The membrane preparation was performed as described in section 1. […] On the day of the assay, the membranes were thawed, diluted in assay buffer (50 mM Na2HPO4, 50 mM KH2PO4, pH 7.4) to a concentration of 6 μg protein/assay and homogenized by gentle vortexing. […] The binding reaction was carried out for 50 minutes at room temperature and terminated by filtration on Packard Unifilter GF/C (0.3% PEI) plates, followed by 2 wash cycles with ice-cold assay buffer.
(§3) Data derived from liquid scintillation counting were analyzed by iterative non-linear regression analysis with the use of the Statistical Analysis System (SAS): a program similar to “LIGAND” as described by Munson and Rodbard (Anal. Biochem. 1980, 107, 220-239). Fitting was performed according to formulae described by Feldman (Anal. Biochem. 1972, 48, 317-338). IC50, nH and Ki values were expressed as geometrical mean.

[2] = target: T1, α1-adrenergic receptor (Homo sapiens, UniProt P35348); assay: α1-adrenergic receptor binding assay (displacement of [3H]-prazosine); conditions: CHO-K1 membranes, 0.1 nM [3H]-prazosine
T1 construct: expressed in transfected cells
Procedure: as §1, §2
CHO-K1 cells stably expressing the 1-adrenergic receptor (NCBI Reference Sequence NM_033303) were cultured in RPMI1640 medium supplemented with 25 mM HEPES, 10% fetal calf serum and 1-2 mM glutamine. The membrane preparation was performed as described in section 1. […] On the day of the assay, the membranes were thawed, diluted in assay buffer (50 mM Tris-HCl, pH 7.4) to a concentration of 4 μg protein/assay and homogenized by gentle vortexing. […] Non-specific binding was defined with 1 μM phentolamine. The binding reaction was carried out for 1 h at room temperature and terminated by filtration on Packard Unifilter GF/C (0.1% PEI) plates, followed by 3 wash cycles with ice-cold assay buffer.
as §3

[3] = target: T2, dopamine D2 receptor (Homo sapiens, UniProt P14416); assay: Dopamine D2 receptor binding assay (displacement of [125I]-iodospiperone); conditions: for Ki: HEK293 membranes, 0.01 nM [125I]-iodospiperone
T2 construct: expressed in transfected cells
Procedure: as §1, §2
HEK293 cells stably expressing the dopamine D2 receptor (NCBI Reference Sequence NM_000795) were cultured in RPMI1640 medium supplemented with 25 mM HEPES, 10% fetal calf serum and 1-2 mM glutamine. The membrane preparation was performed as described in section 1. […] On the day of the assay, the membranes were thawed, diluted in assay buffer (50 mM Tris-HCl, 120 mM NaCl, 5 mM MgCl2, 5 mM KCl, 1.5 mM CaCl2, pH 7.4) to a concentration of 15 μg protein/assay and homogenized by gentle vortexing. For inhibition studies, 0.01 nM [^125I]-iodospiperone (PerkinElmer Life Sciences, NEX284) was incubated in the presence of various concentrations of test compound in assay buffer. Non-specific binding was defined with 1 μM haloperidol. The binding reaction was carried out for 1 h at room temperature and terminated by filtration on Packard Unifilter GF/B (0.1% PEI) plates, followed by 6 wash cycles with an ice-cold 7% polyethylenglycol solution.
as §3

[4] = target: T3, h-5-HT6 receptor (Homo sapiens, UniProt P50406); assay: 5-HT6 receptor binding assay (displacement of [3H]-LSD); conditions: HEK293 membranes, 1 nM [3H]-LSD
T3 construct: expressed in transfected cells
Procedure: as §1, §2
HEK293 cells stably expressing the h-5-HT6 receptor (NCBI Reference Sequence XM 001435) were cultured in RPMI1640 medium supplemented with 25 mM HEPES, 10% fetal calf serum and 1-2 mM glutamine. The membrane preparation was performed as described in section 1. […] Non-specific binding was defined with 1 μM methiothepin. The binding reaction was carried out for 3.5 h at room temperature. During the incubation, the plates were shaken on a plate shaker at 100 rpm and terminated by filtration on Packard Unifilter GF/C (0.1% PEI) plates, followed by 2 wash cycles with ice-cold 50 mM Tris-HCl, 5 mM CaCl2.
as §3

Chain of histamine H1 receptor (P35367 whole entry): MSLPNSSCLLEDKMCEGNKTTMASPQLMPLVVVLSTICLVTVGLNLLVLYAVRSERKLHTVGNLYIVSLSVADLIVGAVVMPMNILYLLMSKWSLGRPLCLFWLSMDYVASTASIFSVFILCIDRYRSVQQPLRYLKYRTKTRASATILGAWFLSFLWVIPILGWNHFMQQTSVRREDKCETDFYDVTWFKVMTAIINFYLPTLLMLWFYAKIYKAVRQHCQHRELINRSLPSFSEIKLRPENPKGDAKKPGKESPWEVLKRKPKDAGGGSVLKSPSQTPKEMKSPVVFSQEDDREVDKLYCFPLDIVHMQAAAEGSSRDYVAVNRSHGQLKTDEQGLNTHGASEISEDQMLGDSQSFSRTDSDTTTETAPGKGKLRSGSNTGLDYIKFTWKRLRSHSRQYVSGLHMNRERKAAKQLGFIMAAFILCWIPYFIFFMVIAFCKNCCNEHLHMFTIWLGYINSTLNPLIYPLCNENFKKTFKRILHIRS
T3 sequence (P50406 whole entry): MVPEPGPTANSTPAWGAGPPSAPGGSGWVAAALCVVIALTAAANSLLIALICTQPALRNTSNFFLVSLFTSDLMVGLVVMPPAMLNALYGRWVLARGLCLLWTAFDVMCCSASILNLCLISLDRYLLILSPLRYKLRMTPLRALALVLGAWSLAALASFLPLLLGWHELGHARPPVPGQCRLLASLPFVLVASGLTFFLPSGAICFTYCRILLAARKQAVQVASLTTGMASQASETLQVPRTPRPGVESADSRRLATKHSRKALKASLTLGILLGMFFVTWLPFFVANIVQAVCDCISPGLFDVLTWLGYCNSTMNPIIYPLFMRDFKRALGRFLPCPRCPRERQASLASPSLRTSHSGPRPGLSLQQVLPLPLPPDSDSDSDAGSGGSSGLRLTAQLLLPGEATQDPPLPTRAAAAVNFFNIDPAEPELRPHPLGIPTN
T1 sequence (P35348 1-475 isoform P35348-2): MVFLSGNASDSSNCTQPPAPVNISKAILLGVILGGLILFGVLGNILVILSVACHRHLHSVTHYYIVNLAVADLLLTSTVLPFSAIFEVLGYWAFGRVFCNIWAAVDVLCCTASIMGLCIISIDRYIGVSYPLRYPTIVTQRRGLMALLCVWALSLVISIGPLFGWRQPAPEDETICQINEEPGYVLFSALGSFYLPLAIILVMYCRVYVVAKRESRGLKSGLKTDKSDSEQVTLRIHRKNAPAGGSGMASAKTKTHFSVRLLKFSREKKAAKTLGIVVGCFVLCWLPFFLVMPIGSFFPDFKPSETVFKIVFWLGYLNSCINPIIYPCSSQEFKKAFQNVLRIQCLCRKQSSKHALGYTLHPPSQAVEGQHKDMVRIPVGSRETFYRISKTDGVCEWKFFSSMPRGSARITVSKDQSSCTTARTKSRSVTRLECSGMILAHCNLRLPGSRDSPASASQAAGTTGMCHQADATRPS
T2 sequence (P14416 whole entry): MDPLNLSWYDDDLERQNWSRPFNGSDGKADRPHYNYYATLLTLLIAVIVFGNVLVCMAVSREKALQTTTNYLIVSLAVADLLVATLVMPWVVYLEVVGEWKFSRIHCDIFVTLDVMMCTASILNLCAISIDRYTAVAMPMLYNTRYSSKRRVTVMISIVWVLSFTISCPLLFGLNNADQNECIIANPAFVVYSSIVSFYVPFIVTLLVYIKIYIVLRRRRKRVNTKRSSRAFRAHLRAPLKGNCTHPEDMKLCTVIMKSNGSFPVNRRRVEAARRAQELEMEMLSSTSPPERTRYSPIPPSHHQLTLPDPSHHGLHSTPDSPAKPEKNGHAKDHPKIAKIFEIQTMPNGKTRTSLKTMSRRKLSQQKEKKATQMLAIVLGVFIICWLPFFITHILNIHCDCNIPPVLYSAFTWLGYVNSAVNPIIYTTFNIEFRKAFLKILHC

Row | Compound | Ki [1] [µM] | Ki [2] [µM] | Ki [3] [µM] | Ki [4] [µM] | Kd ([3]; saturation binding experiments, HEK293 D2 membranes, read-out: KD of radioligand) [µM]
1 | O=S(=O)(c1ccc(-c2cnco2)cc1)n1ccc2cc(C3CNC3)ccc21 [compound 3, 5-azetidin-3-yl-1-(4-oxazol-5-yl-benzenesulfonyl)-1H-indole, hydrochloride] |  |  | > 1 | < 0.25 | 
2 | CCCN1CC(c2ccc3c(ccn3S(=O)(=O)c3ccc(OC(F)F)cc3)c2)C1 [compound 4, 1-(4-Difluoromethoxy-benzenesulfonyl)-5-(1-propyl-azetidin-3-yl)-1H-indole, hydrochloride] |  | > 0.25 | > 1 | < 0.05 | 
3 | CCCN1CC(c2ccc3c(ccn3S(=O)(=O)c3ccccc3)c2)C1 [compound 5, 1-benzenesulfonyl-5-(1-propylazetidin-3-yl)-1H-indole, hydrochloride] | > 1 | > 0.25 | > 1 | < 0.005 | 
4 | CCCN1CC(c2ccc3c(ccn3S(=O)(=O)c3ccc(-c4cnco4)cc3)c2)C1 [compound 6, 1-(4-oxazol-5-yl-benzenesulfonyl)-5-(1-propylazetidin-3-yl)-1H-indole, hydrochloride] |  |  | > 1 | < 0.25 | 
5 | O=S(=O)(c1ccc(-c2cnco2)cc1)N1CCc2cc(C3CNC3)ccc21 [compound 8, 5-azetidin-3-yl-1-(4-oxazol-5-yl-benzenesulfonyl)-2,3-dihydro-1H-indole] |  |  | > 10 | < 0.25 | 
6 | O=S(=O)(c1cccc(C(F)(F)F)c1)n1ccc2cc(C3CNC3)ccc21 [compound 19, 5-azetidin-3-yl-1-(3-trifluoromethyl-benzenesulfonyl)-1H-indole, hydrochloride] | > 10 | > 1 | > 10 | < 0.005 | 
7 | O=S(=O)(c1cccc(OC(F)F)c1)n1ccc2cc(C3CNC3)ccc21 [compound 21, 5-Azetidin-3-yl-1-(3-difluoromethoxybenzenesulfonyl)-1H-indole, hydrochloride] | > 10 | > 1 | > 1 | < 0.005 | 
8 | O=S(=O)(c1cccnc1)n1cc(C2CNC2)c2ccccc21 [compound 24, Azetidin-3-yl-1-(pyridine-3-sulfonyl)-1H-indole, hydrochloride] |  |  | > 10 | < 0.01 | 
9 | CCCN1CC(c2ccc3c(ccn3S(=O)(=O)c3cccc(OC(F)(F)F)c3)c2)C1 [compound 26, 5-(1-Propylazetidin-3-yl)-1-(3-trifluoromethoxybenzenesulfonyl)-1H-indole, hydrochloride] | > 1 | > 0.25 | > 1 | < 0.005 | 
10 | CN1CC(c2ccc3c(ccn3S(=O)(=O)c3ccccc3)c2)C1 [compound 29, 5-(1-Methylazetidin-3-yl)-1-benzenesulfonyl-1H-indole, hydrochloride] |  |  | > 1 | < 0.01 | 
11 | O=S(=O)(c1cccc(C(F)(F)F)c1)N1CCc2cc(C3CNC3)ccc21 [compound 30, 5-Azetidin-3-yl-1-(3-trifluoromethyl-benzenesulfonyl)-2,3-dihydro-1H-indole, hydrochloride] | > 1 | > 1 | > 1 | < 0.005 | 
12 | O=S(=O)(c1ccccc1)n1ccc2cc(C3CNC3)cnc21 [compound 46, 5-Azetidin-3-yl-1-benzenesulfonyl-1H-pyrrolo[2,3-b]pyridine, formic acid salt] | > 10 | > 10 | > 10 | < 0.01 | 

Next, values leading:

Row | Ki [1] [µM] | Ki [2] [µM] | Ki [3] [µM] | Ki [4] [µM] | Kd ([3]; saturation binding experiments, HEK293 D2 membranes, read-out: KD of radioligand) [µM] | Compound
13 | > 10 | > 1 | > 10 | < 0.005 |  | O=S(=O)(c1ccccc1)n1ccc2cc(C3CNC3)ccc21 [compound 2, 5-azetidin-3-yl-1-benzenesulfonyl-1H-indole, hydrochloride]
14 | > 1 | > 1 | > 10 | < 0.005 |  | O=S(=O)(c1ccccc1)N1CCc2cc(C3CNC3)ccc21 [compound 7, 5-azetidin-3-yl-1-benzenesulfonyl-2,3-dihydro-1H-indole, hydrochloride]
15 | > 10 | > 1 | > 1 | < 0.005 |  | O=S(=O)(c1cccc(OC(F)(F)F)c1)n1ccc2cc(C3CNC3)ccc21 [compound 20, 5-Azetidin-3-yl-1-(3-trifluoromethoxybenzenesulfonyl)-1H-indole, hydrochloride]
16 | > 1 | > 1 | > 10 | < 0.005 |  | O=S(=O)(c1ccccc1OC(F)(F)F)n1ccc2cc(C3CNC3)ccc21 [compound 23, 5-Azetidin-3-yl-1-(2-trifluoromethoxybenzenesulfonyl)-1H-indole]
17 | > 1 | > 0.25 | > 1 | < 0.005 |  | CCCN1CC(c2ccc3c(ccn3S(=O)(=O)c3cccc(C(F)(F)F)c3)c2)C1 [compound 25, 5-(1-propyl-azetidin-3-yl)-1-(3-trifluoromethylbenzenesulfonyl)-1H-indole, hydrochloride]
18 | > 1 | > 0.25 | > 1 | < 0.005 |  | CCCN1CC(c2ccc3c(ccn3S(=O)(=O)c3cccc(OC(F)F)c3)c2)C1 [compound 27, 5-(1-Propylazetidin-3-yl)-1-(3-difluoromethoxybenzenesulfonyl)-1H-indole, hydrochloride]
19 |  |  | > 1 | < 0.01 |  | CCN1CC(c2ccc3c(ccn3S(=O)(=O)c3ccccc3)c2)C1 [compound 28, 5-(1-Ethylazetidin-3-yl)-1-benzenesulfonyl-1H-indole, hydrochloride]
20 |  |  |  |  | 0.00022 | iodospiperone [[^125I]-iodospiperone, reference compound]
